From US4281009A, “Hydantoin derivatives” (Nippon Zoki Pharmaceutical Co., Ltd., priority 1978, dated 1981)

How the values were obtained:
[1] = Acute toxicity test (LD50, Litchfield-Wilcoxon), mice; conditions: mouse, in vivo, ip, intraperitoneal
Procedure: (§1) Toxicity tests were carried out by intraperitoneal administration of the compound of the present invention to groups each comprising 10 ICR-strain mice and SD-strain rats. LD50 was calculated by the Litchfield-Wilcoxon method based on the number of death 72 hours after the administration.

[2] = Acute toxicity test (LD50, Litchfield-Wilcoxon), rats; conditions: rat, in vivo, ip, intraperitoneal
Procedure: as §1

ddY-strain male mice = experiment: Effect of prolongation of sleeping time (hexobarbital); assay type: in vivo; conditions: Mus musculus, ip; for change in vivo at 100 mg/kg: 100 mg/kg intraperitoneal; for change in vivo at 300 mg/kg: 300 mg/kg intraperitoneal
Procedure: 7. Effect of prolongation of sleeping time:
Groups of mice each comprising 10 ddY-strain male mice were used. Sodium salt of hexobarbital was given intraperitoneally. Thereafter, the period of time in which righting reflex disappeared was measured. The effect was evaluated on the basis of prolongation of time of disappearance of righting reflex by the intraperitoneal administration of the compounds of the present invention as compared with control mice.

[3] = tested on: normal mice and SART stress mice; experiment: Analgesic effect, D'Amour-Smith method; assay type: in vivo, mice (ddY-strain male); conditions: Mus musculus, ip, intraperitoneal 200 mg/kg
Procedure: 5.3. D'Amour-Smith method:
Groups each comprising 10 ddY-strain male normal mice and SART stress mice to which SART stress had been applied for 4 days were used. The root of the tail of the mouse to which black ink was applied was irradiated with infrared rays for up to 15 seconds. Time required till escape response was observed was measured. The effect was shown by the ratio of the mice in which an average value of the response time at 30, 60, 90 and 120 minutes after the administration of the compounds of the present invention or other comparative drugs was prolonged to at least 2 times as long as the time before the administration.

[4] = tested on: normal mice and SART stress mice; experiment: Analgesic effect, tail pressure method (Randall-Selitto's device); assay type: in vivo, mice (ddY-strain male); conditions: Mus musculus, ip, 1 h, 60 minutes; for change in vivo at 100 mg/kg: intraperitoneal 100 mg/kg; for change in vivo at 200 mg/kg: intraperitoneal 200 mg/kg
Procedure: 5.1 Tail pressure method:
Randall-Selitto's device for determining analgesic effect by pressure stimulation was used. […]. The compounds of the present invention or other comparative drugs were given thereto and analgesic effect was determined. The effect was judged by measuring pressure applied 60 minutes after the intraperitoneal administration of the compounds of the present invention. The pressure thus measured was divided by a pressure before the administration. The value thus obtained was compared with that of a control group (to which 10 ml./Kg of 0.5% sodium salt of carboxymethylcellulose or 0.5% Tween 80 was given). When the compounds of the present invention were given perorally and other comparative drugs were given, an average of the pressure at 30, 60, 90 and 120 minutes after the administration was employed for evaluating the effect.

[5] = tested on: normal mice and SART stress mice; experiment: Analgesic effect, acetic acid writhing method; assay type: in vivo; conditions: Mus musculus, sc, 100 mg/Kg subcutaneously
Procedure: 5.2. Acetic acid writhing method: 0.1 ml./10 g of isotonic sodium chloride solution containing 0.7% acetic acid was given intraperitoneally to groups of mice each comprising 5 normal mice and 5 SART stress mice to which SART stress had been applied for 8 days. Writhing syndromes number appeared for 15 minutes after the administration was measured. The effect was evaluated by giving 100 mg/Kg of the compounds of the present invention or DPH subcutaneously and comparing the writhing syndromes number of the mice with that of control mice.

Structure (SMILES)	LD50 at 72 h ([1]; female) [mg/kg]	LD50 at 72 h ([1]; male) [mg/kg]	LD50 at 72 h ([2]; female) [mg/kg]	LD50 at 72 h ([2]; male) [mg/kg]	change in vivo at 100 mg/kg (ddY-strain male mice) [%]	change in vivo at 300 mg/kg (ddY-strain male mice) [%]	responders at 200 mg/kg ([3]; SART stress mice) [%]	responders at 200 mg/kg ([3]; normal mice) [%]	change in vivo at 100 mg/kg ([4]; SART stress mice) [%]	change in vivo at 100 mg/kg ([4]; normal mice) [%]	change in vivo at 200 mg/kg ([4]; SART stress mice) [%]	change in vivo at 200 mg/kg ([4]; normal mice) [%]	inhibition in vivo at 100 mg/kg ([5]; SART stress mice) [%]	inhibition in vivo at 100 mg/kg ([5]; normal mice) [%]
O=C1NC(=O)C(c2ccc(O)c(O)c2)(c2ccc(O)c(O)c2)N1 [Compound 17, 5,5-Bis(3,4-dihydroxyphenyl)hydantoin]	1800	1500 to 2000	2220	2400										
COc1ccc(C2(c3ccc(OC)cc3OC)NC(=O)NC2=O)c(OC)c1 [Compound 18, 5,5-Bis(2,4-Dimethoxyphenyl)hydantoin]	> 5000	> 5000	> 5000	> 5000										
COc1ccc(C2(c3ccc(OC)c(OC)c3)NC(=O)NC2=O)cc1OC [Compound 19, 5,5-Bis(3,4-dimethoxyphenyl)hydantoin]	> 5000	> 5000	> 5000	> 5000	10									
O=C1NC(=O)C(c2ccc(O)c(CO)c2)(c2ccc(O)c(CO)c2)N1 [Compound 20, 5,5-Bis(4-hydroxy-3-hydroxymethylphenyl)hydantoin]	2980	> 3000	4090	4310										
COc1ccc(C2(c3ccc(OC)c(CO)c3)NC(=O)NC2=O)cc1CO [Compound 21, 5,5-Bis(3-hydroxymethyl-4-methoxyphenyl)hydantoin]	> 5000	> 5000	> 5000	> 5000	25.1									
COc1cc(C2(c3ccc(OC)c(OC)c3OC)NC(=O)NC2=O)cc(OC)c1OC (centres unmarked) [Compound 22, 5-(2,3,4-Trimethoxyphenyl)-5-(3,4,5-trimethoxyphenyl)hydantoin]	> 5000	> 5000	> 5000	> 5000	13.1									
COc1cc(C2(c3cc(OC)c(OC)c(OC)c3)NC(=O)NC2=O)cc(OC)c1OC [Compound 23, 5,5-Bis(3,4,5-trimethoxyphenyl)hydantoin]	> 5000	> 5000	> 5000	> 5000	19.9	22.6	40	20	66	38.1				
CCC1(c2ccccc2O)NC(=O)NC1=O (centres unmarked) [Compound 25, 5-Ethyl-5-(2-hydroxyphenyl)hydantoin]	1040	1230	1480	1600		55.4					49	35.5	19.8	1.9
O=C1NC(=O)C(c2ccccc2O)(c2ccccc2O)N1 [Compound 29, 5,5-Bis(2-hydroxyphenyl)hydantoin]	1600	1600 to 1800	1900	1980										
O=C1NC(=O)C(c2ccc(O)cc2)(c2ccc(O)cc2O)N1 (centres unmarked) [Compound 31, 5-(2,4-Dihydroxyphenyl)-5-(4-hydroxyphenyl)hydantoin]	1200	1220	1510	1540	19.1									
O=C1NC(=O)C(c2ccc(O)cc2O)(c2ccc(O)cc2O)N1 [Compound 34, 5,5-Bis(2,4-dihydroxyphenyl)hydantoin]	1200	> 1000	2000 to 3000	2000 to 3000										
